Here are results for 11 molecules from ChEMBL document CHEMBL1201862, “PubChem BioAssay data set” (2004).

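Values below derive from 48-hour exposures of cells grown in 96-well plates, with endpoints linearly interpolated between the two concentrations bracketing the appropriate inhibition level. At the GI50, growth is halved.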 Active and inactive are the calls of the source. No stated cut-off is given here; in the data, active = GI50 up to about 1.1 µM and inactive = higher.

Some test systems named below: TK-10; OVCAR-3; SF-295; K562; 786-0; IGROV-1; UACC-257; SK-OV-3; NCI-H460; CCRF-CEM; RPMI-8226; UO-31; SNB-78; SK-MEL-2; M14; SN12C; NCI-H226; MDA-MB-231; Hs-578T; MDA-N.
Common to all, as to assay: DTP human tumour cell line panel, 48 h

As a reminder, the GI50 is the concentration giving 50% growth inhibition. Regarding `O=C(c1ccccc1)C(c1ccccc1)C1(O)C(=O)Nc2c(Cl)ccc(Cl)c21` (stereo not drawn), the GI50 in the assay with TK-10 is 32.6 µM (inactive); with OVCAR-3, 17.4 µM (inactive); in the assay with SF-295, 16.5 µM (inactive); with K562 it was 12.5 µM (inactive); in the assay with 786-0 it was 19.5 µM (inactive); with IGROV-1 it was 20.6 µM (inactive). Moreover, the GI50 in the assay on UACC-257 is 15.4 µM (inactive); in the assay with SK-OV-3, 30.8 µM (inactive); in the assay with NCI-H460 it was 14.3 µM (inactive); in the assay with CCRF-CEM, 12.2 µM (inactive); in the assay on RPMI-8226, 12.2 µM (inactive); in the assay on UO-31, 20.2 µM (inactive). Further, the GI50 in the assay on SNB-78 was 25.5 µM (inactive); in the assay with SK-MEL-2, 21.2 µM (inactive); in the assay with M14, 16.8 µM (inactive); in the assay with SN12C, 17.9 µM (inactive).

For `COC(=O)c1cc(Br)c(Br)n1C`, the GI50 in the assay with TK-10, with OVCAR-3, with SF-295, in the assay on K562, in the assay with 786-0 and with IGROV-1 was > 100 µM (inactive) throughout. The GI50 in the assay with UACC-257, in the assay on SK-OV-3, in the assay on NCI-H226, with CCRF-CEM, with UO-31 and in the assay on SNB-78 was > 100 µM (inactive) in each case. Moreover, the GI50 in the assay on M14 and in the assay on SN12C was > 100 µM (inactive) in each case.

For the molecule `N/C(=N\N=C=C1C(=O)Nc2ccc(F)cc21)NO`, the GI50 in the assay on TK-10 is > 100 µM (inactive); in the assay with OVCAR-3 it was > 100 µM (inactive); with SF-295 it was > 100 µM (inactive); with K562, 95.9 µM (inactive); in the assay on 786-0, > 100 µM (inactive); in the assay with IGROV-1, > 100 µM (inactive). For the same molecule, the GI50 with UACC-257 was > 100 µM (inactive); in the assay on SK-OV-3, 59.2 µM (inactive); in the assay with NCI-H460, 74.5 µM (inactive); in the assay with CCRF-CEM, 98.2 µM (inactive); in the assay with SNB-78, > 100 µM (inactive); in the assay on SK-MEL-2, > 100 µM (inactive). In addition, the GI50 with M14 and in the assay with SN12C was > 100 µM (inactive) each time.

Turning to `O=C(O)c1cc2ccccc2c(O)c1O`, the GI50 with TK-10 is 21.9 µM (inactive); in the assay with OVCAR-3 it was 13.5 µM (inactive); in the assay on SF-295 it was 15.3 µM (inactive); with K562, 8.09 µM (inactive); with 786-0, 14.3 µM (inactive); with IGROV-1, 20.2 µM (inactive). The GI50 with MDA-MB-231 is 17.7 µM (inactive); in the assay with UACC-257, 9.68 µM (inactive); in the assay on SK-OV-3, 14.8 µM (inactive); in the assay on NCI-H226, 13.7 µM (inactive); in the assay with Hs-578T, 8.13 µM (inactive); with NCI-H460 it was 22.9 µM (inactive). Further, the GI50 was 5.75 µM (inactive) in the assay on CCRF-CEM; 2.14 µM (inactive) in the assay with MDA-N; > 52.2 µM (inactive) with RPMI-8226; 20.5 µM (inactive) in the assay with UO-31; 1.03 µM (active) in the assay with SK-MEL-2; 4.79 µM (inactive) in the assay with M14. Besides, the GI50 with SN12C is 16.6 µM (inactive).

For the molecule `O=C(NN=C1CCCCC1)Nc1ccccc1Cl`, the GI50 in the assay with TK-10 was > 100 µM (inactive); with OVCAR-3 it was 16.4 µM (inactive); in the assay with SF-295, 33.3 µM (inactive); in the assay with K562 it was 37.7 µM (inactive); in the assay with 786-0, > 100 µM (inactive); in the assay on IGROV-1, 26.5 µM (inactive). The GI50 is > 100 µM (inactive) with MDA-MB-231; 78.7 µM (inactive) in the assay on UACC-257; 55.6 µM (inactive) in the assay with SK-OV-3; 39.9 µM (inactive) in the assay on NCI-H226; 32 µM (inactive) with Hs-578T; 42.5 µM (inactive) with NCI-H460. Also, the GI50 in the assay with CCRF-CEM is 42 µM (inactive); in the assay with MDA-N it was 18.1 µM (inactive); in the assay on RPMI-8226, 45.9 µM (inactive); in the assay on UO-31 it was 61.9 µM (inactive); in the assay with SK-MEL-2 it was 28.6 µM (inactive); with M14 it was 29.8 µM (inactive). The GI50 with SN12C was 57.5 µM (inactive).

With `CN(NC(=O)CCCl)C1=NCCCCN1`, the GI50 with TK-10, in the assay on OVCAR-3, in the assay on SF-295, with K562, in the assay with 786-0 and with IGROV-1 was > 100 µM (inactive) throughout. The GI50 in the assay with MDA-MB-231, in the assay on UACC-257, in the assay on SK-OV-3, with NCI-H226, in the assay on Hs-578T and in the assay on NCI-H460 was > 100 µM (inactive) each time. The GI50 in the assay on CCRF-CEM, in the assay on MDA-N, in the assay on RPMI-8226, with UO-31, in the assay with SK-MEL-2 and in the assay with M14 was > 100 µM (inactive) in each case. For the same molecule, the GI50 with SN12C is > 100 µM (inactive).

On to `CC1=NC(=Cc2cc(Br)cc(Br)c2)C(=O)N1n1c(-c2ccccc2)nc2ccccc2c1=O`, for which the GI50 in the assay on TK-10, with OVCAR-3, in the assay with SF-295, with K562, with 786-0 and in the assay on IGROV-1 was > 100 µM (inactive) in each case. The GI50 in the assay with MDA-MB-231, in the assay on UACC-257, in the assay on SK-OV-3, in the assay with NCI-H226, in the assay with Hs-578T and in the assay on NCI-H460 was > 100 µM (inactive) each time. The GI50 in the assay on CCRF-CEM, in the assay with MDA-N, with RPMI-8226, in the assay with UO-31, in the assay on SK-MEL-2 and in the assay with M14 was > 100 µM (inactive) in each case. Moreover, the GI50 in the assay with SN12C is > 100 µM (inactive).

For the molecule `CC(=O)NCC1(c2ccccc2)CCN(CC2COc3ccccc3O2)CC1` (stereo not drawn) [ACOXATRINE], the GI50 with TK-10, in the assay with OVCAR-3, in the assay with SF-295, with K562, in the assay with 786-0 and with IGROV-1 was > 100 µM (inactive) each time. The GI50 in the assay with MDA-MB-231, in the assay with UACC-257, in the assay on SK-OV-3, with NCI-H226, in the assay with Hs-578T and in the assay on NCI-H460 was > 100 µM (inactive) throughout. Further, the GI50 in the assay with CCRF-CEM, in the assay on MDA-N, in the assay with RPMI-8226, with UO-31, in the assay with SK-MEL-2 and in the assay with M14 was > 100 µM (inactive) in each case. For the same molecule, the GI50 in the assay on SN12C was > 100 µM (inactive).

In the case of `O=C1C(N2CCCC2)=CC(=O)c2c(O)c(N3CCCC3)c(Cl)c(O)c21`, the GI50 in the assay with TK-10, in the assay on OVCAR-3, in the assay with SF-295, in the assay with K562, with 786-0 and in the assay on IGROV-1 was > 10 µM (inactive) in each case. In addition, the GI50 in the assay on MDA-MB-231, with UACC-257, in the assay on SK-OV-3, with NCI-H226, in the assay on Hs-578T and with NCI-H460 was > 10 µM (inactive) in each case. In addition, the GI50 in the assay on CCRF-CEM, with MDA-N, with RPMI-8226, with UO-31, in the assay on SK-MEL-2 and with M14 was > 10 µM (inactive) each time. Besides, the GI50 with SN12C is > 10 µM (inactive).

Regarding `Nc1ccc(C(=O)N/C(=C\c2cccc([N+](=O)[O-])c2)c2nc3c4c(ccc3[nH]2)C(=O)c2ccccc2C4=O)cc1`, the GI50 is 19.2 µM (inactive) with TK-10; 12.7 µM (inactive) in the assay on OVCAR-3; 14 µM (inactive) in the assay with SF-295; 56 µM (inactive) in the assay with K562; 17.7 µM (inactive) in the assay with 786-0; 8.39 µM (inactive) in the assay with IGROV-1. Further, the GI50 in the assay with UACC-257 was > 100 µM (inactive); in the assay with SK-OV-3, 19.3 µM (inactive); in the assay with NCI-H460 it was 21.3 µM (inactive); in the assay on CCRF-CEM, 0.853 µM (active); with RPMI-8226 it was 6.78 µM (inactive); in the assay with UO-31, 1.86 µM (inactive). Also, the GI50 in the assay on SNB-78 is > 100 µM (inactive); in the assay with SK-MEL-2 it was 91.6 µM (inactive); in the assay with M14, > 100 µM (inactive); in the assay with SN12C, > 100 µM (inactive).

Consider `O=C(O)c1cccc(S(=O)(=O)NN2C(=O)CSC2c2ccccc2)c1` (stereo not drawn), for which the GI50 in the assay on TK-10, in the assay on OVCAR-3, with SF-295, in the assay with K562, with 786-0 and with IGROV-1 was > 100 µM (inactive) in each case. For the same molecule, the GI50 in the assay with MDA-MB-231, in the assay on UACC-257, in the assay with SK-OV-3, with NCI-H226, in the assay with Hs-578T and with NCI-H460 was > 100 µM (inactive) in each case. Further, the GI50 in the assay on CCRF-CEM was > 100 µM (inactive); in the assay with MDA-N it was 74.6 µM (inactive); in the assay on RPMI-8226, 35.3 µM (inactive); in the assay with UO-31 it was > 100 µM (inactive); in the assay on SK-MEL-2, > 100 µM (inactive); in the assay on M14 it was > 100 µM (inactive). The GI50 in the assay on SN12C was > 100 µM (inactive).
